Data as given in patent US20220184071A1, “GEPOTIDACIN FOR USE IN THE TREATMENT OF BACTERIAL URINARY TRACT INFECTIONS” (GlaxoSmithKline Intellectual Property Development Limited, priority 2019, published 2022).
Converted amounts (≈) assume the structure as drawn. “Also recorded” adds a separate entry of the source. Read-outs that look alike come from different tables or passages of the source.

Tests used:
[1] = Phase IIa safety and tolerability; assay type: in vivo, human
Experimental: This phase IIa single center study evaluated the safety, tolerability, pharmacokinetics, and efficacy of oral gepotidacin 1500 mg BID for 5 days in female subjects with acute cystitis. Clean catch mid-stream urine specimens were obtained for quantitative culture by standard methods. Urine samples were taken from all participants pre-treatment (baseline) and at all post-baseline visits. All urine samples were sent to a central laboratory (PPD Global Clinical Laboratories, Highland Heights, Ky., USA) for Gram stain, quantitative culture, pathogen identification and susceptibility testing. See FIG. 1 for participant disposition and study outline.
Serial blood and urine PK sampling were performed for the first dose of study treatment on Day 1 and for the time-matched dose on Day 4. Participants took all doses of gepotidacin with food and remained in the clinic to complete a total of 10 doses. Participants were instructed to return for the TOC (Day 10 to 13) and Follow-up (Day 28±3) Visits.

[2] = tested on: E. coli; experiment: MIC of the isolates used in the murine models; assay type: cell-based, Escherichia coli
[3] = Pharmacokinetics in infected mice (plasma, kidney, thigh; PopPK); assay type: in vivo, mouse
Experimental: PK and PD studies using gepotidacin were conducted in murine (male CD-1 mice) thigh and kidney infections. The administered doses ranged from 1 to 200 mg/kg SC every 6 hours starting 1h post infection. Infected tissues were evaluated for bacterial burden at 24 h post infection (baseline controls at 1 h post infection).
Plasma and tissue samples (kidney or thigh homogenates) were collected at 15, 30, 60, 120, 240 and 360 minutes. A population PK (PopPK) model was built in NONMEM using plasma exposures.
Specific pathogen free male CD-1 mice weighing ˜27 g were used throughout the PK and PD studies. For most studies, mice were rendered neutropenic with two IP doses of cyclophosphamide on day −4 (150 mg/kg) and day −1 (100 mg/kg). Plasma and tissue samples (kidney and/or thigh) were collected at 15, 30, 60, 120, 240 and 360 minutes post dose from competent or neutropenic infected mice (N=3/group) following a single subcutaneous (SC) dose of 6.25-200 mg/kg. Samples were assayed by LC/MS/MS; the lower limit of quantification was 0.05 ug/mL.
Non-compartmental Analysis (NCA): plasma NCA was conducted using Phoenix WinNonLin 6.3 (Pharsight) with the linear up log down method.
Population Pharmacokinetics (PopPK): • Total drug concentrations in plasma were converted to free drug values based on protein binding of 24% in mice. • A PopPK model was built to describe the drug exposure in plasma over time using NONMEM (7.3) and the software R (version 3.4.0) for diagnostic plots. • The final model was used to simulate exposures at the multiple dose levels evaluated in the efficacy studies.

[4] = Exposure in epithelial lining fluid (ELF) and alveolar macrophages (AM), healthy subjects; assay type: in vivo; conditions: human, single 1000 mg IV infusion over 2 hours
Experimental: Antibiotic target site exposures play a key role as suboptimal levels may lead to therapeutic failure and resistance. Across multiple clinical studies, exposures to gepotidacin were assessed in plasma and other matrices, such as urine, saliva, epithelial lining fluid (ELF) and Alveolar Macrophages (AM).
Bronchoalveolar lavage samples were collected to determine gepotidacin exposures in ELF and AM following a single 1000 mg IV infusion over 2 hours to healthy subjects. Saliva exposure was assessed in healthy volunteers following 1500 mg oral single dose. Gepotidacin exposures in urine was assessed in women with acute uUTI following 1500 mg BID oral doses for 5 days.

[5] = tested on: Prevotella spp.; experiment: MIC by CLSI agar dilution, Example 6 Method 1; assay type: cell-based
Experimental: (§1) Antimicrobial activity was determined by agar dilution using the Clinical and Laboratory Standards Institute (CLSI) recommended procedure.
(§2) The compounds were tested in serial two-fold dilutions and the minimum inhibitory concentration (MIC) was determined as the lowest concentration of the compound that inhibited visible growth. Gepotidacin was tested against 333 gram-negative anaerobic and 203 gram-positive anaerobic isolates collected from clinical samples in North America and Europe from 2000 to 2017; the majority collected from 2013 to 2016.
(§3) Ceftriaxone, clindamycin, imipenem, metronidazole, moxifloxacin and piperacillin/tazobactam were included as comparators.
(§4) Additional analysis was performed from the results of the study described in Method 1 above, to determine the in vitro activity of gepotidacin against gram-negative and gram-positive anaerobic organisms with resistance to ceftriaxone, clindamycin, imipenem, metronidazole, moxifloxacin and piperacillin/tazobactam.

[6] = tested on: Sutterella wadsworthensis; experiment: MIC by CLSI agar dilution, Example 6 Method 1; assay type: cell-based
Experimental: as §1, §2, §3, §4

[7] = tested on: Bacteroides spp.; experiment: MIC by CLSI agar dilution, Example 6 Method 1; assay type: cell-based; conditions: for Gepotidacin MIC range: agar dilution
Experimental: as §1, §2, §3, §4

[8] = tested on: Clostridium difficile; experiment: MIC by CLSI agar dilution, Example 6 Method 1; assay type: cell-based
Experimental: as §1, §2, §3, §4

[9] = tested on: Porphyromonas spp.; experiment: MIC by CLSI agar dilution, Example 6 Method 1; assay type: cell-based; conditions: 26 isolates, read-out: Gepotidacin MIC90
Experimental: as §1, §2, §3, §4

[10] = tested on: Bifidobacterium spp.; experiment: MIC by CLSI agar dilution, Example 6 Method 1; assay type: cell-based
Experimental: as §1, §2, §3, §4

O=c1ccc2ncc(=O)n3c2n1C[C@H]3CN1CCC(NCc2cc3c(cn2)OCCC3)CC1 [gepotidacin, (2R)-2-({4-[(3,4-dihydro-2H-pyrano[2,3-c]pyridin-6-ylmethyl)amino]-1-piperidinyl}methyl)-1,2-dihydro-3H,8H-2a,5,8a-triazaacenaphthylene-3,8-dione]
Back pain, n (%) ([1]; N = 22): 2 (9) | Chest discomfort, n (%) ([1]; N = 22): 2 (9) | Gastrointestinal disorders, n (%) ([1]; N = 22): 21 (95) | General disorders and administration site conditions, n (%) ([1]; N = 22): 2 (9) | Headache, n (%) ([1]; N = 22): 5 (23) | Infections and infestations, n (%) ([1]; N = 22): 6 (27) | Nervous system disorders, n (%) ([1]; N = 22): 5 (23) | Viral upper respiratory tract infection, n (%) ([1]; N = 22): 2 (9) | Vomiting, n (%) ([1]; N = 22): 5 (23) | Vulvovaginal mycotic infection, n (%) ([1]; N = 22): 2 (9) | Any adverse event, n (%) ([1]; N = 22, 1500 mg BID 5 days): 21 (95) | Musculoskeletal and connective tissue disorders, n (%) ([1]; female, human, in vivo, 5 days): 3 (14) | safety laboratory parameters, vital signs, ECG ([1]; in vivo): no clinically relevant trends; also recorded: no clinically significant changes | withdrawals or study treatment discontinuations due to AEs ([1]; in vivo): No withdrawal due to AE; also recorded: no withdrawals or study treatment discontinuations due to AEs | Episodes of vomiting considered drug related ([1]; mild or moderate, not treatment limiting): 4 participants | intensity of GI AEs ([1]; onset at day 1, improving upon repeat dosing): mild or moderate | tolerability ([1]; oral 1500 mg BID for 5 days): tolerated with no dose-limiting AEs | range of MICs ([2]; 5 isolates: ALL, 997577, ATCC25922, IR5, NCTC13441): 1 to 4 µg/mL | Gepotidacin MIC ([2]; Strain 997577): 2 µg/mL | Gepotidacin MIC ([2]; Strain ALL): 4 µg/mL | Gepotidacin MIC ([2]; Strain ATCC25922): 1 µg/mL | Gepotidacin MIC ([2]; Strain IR5): 4 µg/mL | Gepotidacin MIC ([2]; Strain NCTC13441): 2 µg/mL | duration of infusion ([3]; PopPK final parameter estimate, plasma): 0.262 h | AUC0-6 in kidney, fold higher than in plasma ([3]; SC dosing, infected mice): 4- to 5 fold | AUC0-6 in thigh relative to plasma ([3]; SC dosing, infected mice): approximately half of plasma | clearance ([3]; male, CD-1, mouse, subcutaneous, PopPK final parameter estimate, plasma): 1.73 mL/min | Vd ([3]; male, CD-1, mouse, subcutaneous, PopPK final parameter estimate, plasma, read-out: volume of distribution): 0.151 L | fraction unbound ([3]; mouse, plasma, mice, read-out: protein binding (converted)): 0.76 | Kp ([4]; alveolar macrophages, read-out: AM AUC(0-12) ratio to unbound plasma): 178 | Kp ([4]; epithelial lining fluid, read-out: ELF AUC(0-12) ratio to unbound plasma): 1.84 | MIC90 ([5]; Prevotella, 30 isolates, read-out: Gepotidacin MIC90): 4 µg/mL (≈ 8.92 µM) | Gepotidacin MIC range ([5]; ceftriaxone R, 6 isolates): 0.25 to 2 µg/mL | Gepotidacin MIC range ([5]; clindamycin R, 7 isolates): 0.25 to 4 µg/mL | MIC90 ([6]; Sutterella wadsworthensis, 10 isolates, read-out: Gepotidacin MIC90): 1 µg/mL (≈ 2.23 µM) | Gepotidacin MIC range ([6]; metronidazole R, 4 isolates): 0.5 to 1 µg/mL | MIC90 ([7]; Bacteroides, 191 isolates, read-out: Gepotidacin MIC90): 4 µg/mL (≈ 8.92 µM) | Gepotidacin MIC range ([7]; ceftriaxone R, 100 isolates): ≤0.015 to 32 µg/mL | Gepotidacin MIC range ([7]; clindamycin R, 53 isolates): ≤0.015 to 32 µg/mL | Gepotidacin MIC range ([7]; moxifloxacin R, 32 isolates): 0.25 to 32 µg/mL | Gepotidacin MIC range ([8]; Clostridioides difficile ceftriaxone R, 48 isolates): 0.5 to 4 µg/mL | Gepotidacin MIC range ([8]; Clostridioides difficile clindamycin R, 23 isolates): 0.5 to 2 µg/mL | Gepotidacin MIC range ([8]; Clostridioides difficile imipenem R, 2 isolates): 1 µg/mL | Gepotidacin MIC range ([8]; Clostridioides difficile moxifloxacin R, 37 isolates): 0.5 to 8 µg/mL | MIC90 ([8]; Clostridioides difficile, 100 isolates, read-out: Gepotidacin MIC90): 2 µg/mL (≈ 4.46 µM) | MIC90 [9]: 1 µg/mL (≈ 2.23 µM) | MIC90 ([10]; Bifidobacterium, 26 isolates, read-out: Gepotidacin MIC90): 0.5 µg/mL (≈ 1.11 µM) | Gepotidacin MIC range ([10]; moxifloxacin R, 3 isolates): 0.125 to 0.5 µg/mL
